Data reported in patent publication US7879846B2, “Serine hydrolase inhibitors” (Kyorin Pharmaceutical Co.., Ltd., priority 2006, dated 2011).
pIC50: −log10 of the molar value.

Biological target: T1, Human sputum neutrophil elastase (Homo sapiens, UniProt P08246)
T1 construct: purchased Elastin Products Co; host or cells: human sputum (natural source)
T1 sequence (P08246 30-247 limits assumed): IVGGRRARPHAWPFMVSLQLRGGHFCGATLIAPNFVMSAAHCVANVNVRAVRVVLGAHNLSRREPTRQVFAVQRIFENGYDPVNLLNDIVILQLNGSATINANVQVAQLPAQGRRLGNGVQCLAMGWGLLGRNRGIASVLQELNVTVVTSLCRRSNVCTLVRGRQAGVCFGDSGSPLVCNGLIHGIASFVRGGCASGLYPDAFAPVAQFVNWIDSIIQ
Experiment: Inhibitor IC50 against human neutrophil elastase (fluorogenic MeOSuc-AAPV-AMC substrate)
Assay type: biochemical
Settings: 20 min preincubation, read-out: HNE IC50
Protocol: Determination of Inhibitor IC50 Values Against Human Neutrophil Elastase
Human sputum neutrophil elastase (Elastin Products Co.) was diluted into Assay Buffer A (200 mM Tris pH 7.4, 1 mg/ml BSA) to a working concentration of 0.55 U/ml. […] DMSO alone was used as the negative control. MeOSuc-AAPV-AMC (Bachem) substrate was dissolved in DMSO to 20 mM and further diluted to 1 mM in Assay Buffer A immediately before use. Substrate was added to the elastase assay at a final concentration of 1×10^−4 M. The reaction was allowed to proceed for 20 minutes at room temperature and then quenched with acetic acid at a final concentration of 3% (v/v). […] Fluorescence intensity versus inhibitor concentration was plotted and fit to the Hill equation to quantify IC50 values.

Row | pIC50 | Structure (SMILES)
1 | < 6.82 | COc1cc(C2CCC2)c2c(=O)oc(-c3cccnc3N3CCC[C@H](C(=O)O)C3)nc2c1 [Compound 174]
2 | < 6.82 | COc1cc(C2CCC2)c2c(=O)oc(-c3cccnc3N3CC[C@@H](N(C)C)C3)nc2c1 [Compound 175]
3 | 6.82 to 7.21 | COc1cc(C2CCC2)c2c(=O)oc(-c3cccnc3N3CC[C@H](N(C)C)C3)nc2c1 [Compound 176]
4 | 7.22 to 7.80 | Cc1cccc2nc(-c3cccnc3N3CC[C@H](N(C)C)C3)oc(=O)c12 [Compound 177]
5 | 7.22 to 7.80 | Cc1cccc2nc(-c3cccnc3N3CC[C@@H](N(C)C)C3)oc(=O)c12 [Compound 178]
6 | 7.22 to 7.80 | Cc1cccc2nc(-c3cccnc3N3CCN(CCN4CCOCC4)CC3)oc(=O)c12 [Compound 179]
7 | 7.22 to 7.80 | Cc1cccc2nc(-c3cccnc3N3CCN(CCN(C)C)CC3)oc(=O)c12 [Compound 180]
8 | 6.82 to 7.21 | COc1cc(C2CCC2)c2c(=O)oc(-c3cccnc3N3CCN(CCN(C)C)CC3)nc2c1 [Compound 186]
9 | < 6.82 | COc1cc(C2CCC2)c2c(=O)oc(-c3cccnc3N3CCN(CCN4CCOCC4)CC3)nc2c1 [Compound 187]
10 | 7.22 to 7.80 | COc1cc(C2CCC2)c2c(=O)oc(-c3cccnc3N(C)CCN(C)C)nc2c1 [Compound 188]
11 | > 7.82 | CCc1cc(OC)cc2nc(-c3cccnc3N3CCC(N(CC)CC)C3)oc(=O)c12 (stereo not drawn) [Compound 189]
12 | > 7.82 | CCc1cc(OC)cc2nc(-c3cccnc3N3CCN(CC4OCCO4)CC3)oc(=O)c12 [Compound 191]
13 | > 7.82 | C=CCN1CCN(c2ncccc2-c2nc3cc(OC)cc(CC)c3c(=O)o2)CC1 [Compound 193]
14 | > 7.82 | CCc1cc(OC)cc2nc(-c3cccnc3N3CCCN(C)CC3)oc(=O)c12 [Compound 195]
15 | > 7.82 | CCOC(=O)CN1CCN(c2ncccc2-c2nc3cc(OC)cc(CC)c3c(=O)o2)CC1 [Compound 196]
16 | > 7.82 | CCc1cc(OC)cc2nc(-c3cccnc3N3CCN(CC(=O)N4CCOCC4)CC3)oc(=O)c12 [Compound 197]
17 | 7.22 to 7.80 | CCc1cc(OC)cc2nc(-c3cccnc3N3CCN(C(C)C)CC3)oc(=O)c12 [Compound 201]
18 | 7.22 to 7.80 | CCc1cc(OC)cc2nc(-c3cccnc3N3CCN(CCNC(=O)OC(C)(C)C)CC3)oc(=O)c12 [Compound 202]
19 | > 7.82 | CCOCCN1CCN(c2ncccc2-c2nc3cc(OC)cc(CC)c3c(=O)o2)CC1 [Compound 203]
20 | < 6.82 | CCc1cc(OC)cc2nc(-c3ccnc(N4CCN(C)CC4)c3)oc(=O)c12 [Compound 205]
21 | 7.22 to 7.80 | CCc1cc(OC)cc2nc(-c3cccc(N4CCN(C)CC4)n3)oc(=O)c12 [Compound 206]
22 | 7.22 to 7.80 | CCc1cc(OC)cc2nc(-c3ccc(N4CCN(C)CC4)nc3)oc(=O)c12 [Compound 207]
23 | 7.22 to 7.80 | CCc1cc(OC)cc2nc(-c3cccnc3N3CCC(S(=O)(=O)O)CC3)oc(=O)c12 [Compound 209]
24 | 7.22 to 7.80 | CCc1cc(OC)cc2nc(-c3cccnc3N3CCN(CCOCCO)CC3)oc(=O)c12 [Compound 210]

Row | pIC50 | Structure (SMILES)
25 | 7.22 to 7.80 | CCc1cc(OC)cc2nc(-c3cccnc3N3CCCC(N(C)C)C3)oc(=O)c12 (stereo not drawn) [Compound 212]
26 | > 7.82 | CCc1cc(OC)cc2nc(-c3cccnc3N3CCN(CCC(=O)O)CC3)oc(=O)c12 [Compound 213]
27 | > 7.82 | CCc1cc(OC)cc2nc(-c3cccnc3N3CCC(O)CC3)oc(=O)c12 [Compound 214]
28 | > 7.82 | CCc1cc(OC)cc2nc(-c3cccnc3N3CCC(N4CCCC4)CC3)oc(=O)c12 [Compound 215]
29 | > 7.82 | CCc1cc(OC)cc2nc(-c3cccnc3N3CCC(N4CCCCC4)CC3)oc(=O)c12 [Compound 216]
30 | > 7.82 | C=CCN1C[C@@H](C)N(c2ncccc2-c2nc3cc(OC)cc(CC)c3c(=O)o2)C[C@H]1C [Compound 217]
31 | > 7.82 | CCc1cc(OC)cc2nc(-c3cccnc3N3CCN(CC4CCCO4)CC3)oc(=O)c12 (stereo not drawn) [Compound 218]
32 | 7.22 to 7.80 | CCc1cc(OC)cc2nc(-c3cccnc3N3CCN(CCCC#N)CC3)oc(=O)c12 [Compound 219]
33 | 7.22 to 7.80 | CCc1cc(OC)cc2nc(-c3cccnc3N3CCC(N(C)C)CC3)oc(=O)c12 [Compound 220]
34 | 7.22 to 7.80 | CCOC(=O)CCN1CCN(c2ncccc2-c2nc3cc(OC)cc(CC)c3c(=O)o2)CC1 [Compound 221]
35 | 7.22 to 7.80 | CCCN1CCN(c2ncccc2-c2nc3cc(OC)cc(CC)c3c(=O)o2)CC1 [Compound 222]
36 | 6.82 to 7.21 | CCc1cc(OC)cc2nc(-c3cccnc3N3CCN(c4ccccc4)CC3)oc(=O)c12 [Compound 223]
37 | 6.82 to 7.21 | CCc1cc(OC)cc2nc(-c3cccnc3N3CCC(Cc4ccccc4)CC3)oc(=O)c12 [Compound 224]
38 | 7.22 to 7.80 | CCc1cc(OC)cc2nc(-c3cccnc3N3CCC(CCCC(=O)O)CC3)oc(=O)c12 [Compound 225]
39 | 7.22 to 7.80 | CCc1cc(OC)cc2nc(-c3cccnc3N3CCCCC3)oc(=O)c12 [Compound 226]
40 | 7.22 to 7.80 | C#CCOC(=O)NCCN1CCN(c2ncccc2-c2nc3cc(OC)cc(CC)c3c(=O)o2)CC1 [Compound 227]
41 | > 7.82 | C#CCCN1CCN(c2ncccc2-c2nc3cc(OC)cc(CC)c3c(=O)o2)CC1 [Compound 228]
42 | > 7.82 | CCc1cc(OC)cc2nc(-c3cccnc3N3CC[N+](C)(C)CC3)oc(=O)c12 [Compound 229]
43 | > 7.82 | CCc1cc(OC)cc2nc(-c3cccnc3N3CC[N+](C)(CCOC)CC3)oc(=O)c12 [Compound 230]
44 | > 7.82 | CCc1cc(OC)cc2nc(-c3cccnc3N3CC[N+](C)(CC4OCCO4)CC3)oc(=O)c12 [Compound 231]
45 | > 7.82 | CCc1cc(OC)cc2nc(-c3cccnc3N3CC[C@H]([N+](C)(C)C)C3)oc(=O)c12 [Compound 232, {1-[3-(5-Ethyl-7-methoxy-4-oxo-4H-benz[d][1,3]oxazin-2-yl)-pyridin-2-yl]-pyrrolidin-3-yl}-trimethyl-ammonium acetate]
46 | 7.22 to 7.80 | C#CCN1CCN(c2ncccc2-c2nc3cc(OC)cc(CC)c3c(=O)o2)CC1 [Compound 233]
47 | > 7.82 | C#CCN1CCN(c2ncccc2-c2nc3cccc(CC)c3c(=O)o2)CC1 [Compound 234]
48 | > 7.82 | C#CCN1CCN(c2ncccc2-c2nc3cccc(C(F)(F)F)c3c(=O)o2)CC1 [Compound 235]

Row | pIC50 | Structure (SMILES)
49 | > 7.82 | CCc1cc(OC)cc2nc(-c3cccnc3N(C)CCN3CCCC3)oc(=O)c12 [Compound 237]
50 | > 7.82 | CCc1cc(OC)cc2nc(-c3cccnc3N(CC)CCCN3CCOCC3)oc(=O)c12 [Compound 238]
51 | > 7.82 | CCc1cc(OC)cc2nc(-c3cccnc3N(C)CCN(C)C)oc(=O)c12 [Compound 239]
52 | > 7.82 | CCc1cc(OC)cc2nc(-c3cccnc3N3CCN(c4cccnc4)CC3)oc(=O)c12 [Compound 240]
53 | > 7.82 | CCc1cc(OC)cc2nc(-c3cccnc3N(C)CCCN(C)C)oc(=O)c12 [Compound 241]
54 | > 7.82 | CCc1cc(OC)cc2nc(-c3cccnc3N(C)CC3CCN(C)CC3)oc(=O)c12 [Compound 242]
55 | 7.22 to 7.80 | CCc1cc(OC)cc2nc(-c3cccnc3N3CCCC(CN4CCOCC4)C3)oc(=O)c12 (stereo not drawn) [Compound 243]
56 | > 7.82 | CCc1cc(OC)cc2nc(-c3cccnc3N(C)CC3CCN(C)C3)oc(=O)c12 (stereo not drawn) [Compound 244]
57 | > 7.82 | CCc1cc(OC)cc2nc(-c3cccnc3N3CCC(CN4CCOCC4)CC3)oc(=O)c12 [Compound 245]
58 | 7.22 to 7.80 | CCc1cc(OC)cc2nc(-c3cccnc3N3CCC(CN(C)C)CC3)oc(=O)c12 [Compound 246]
59 | > 7.82 | CCc1cc(OC)cc2nc(-c3cccnc3N3CCC(CCN4CCOCC4)CC3)oc(=O)c12 [Compound 247]
60 | > 7.82 | CCc1cc(OC)cc2nc(-c3cccnc3N3CCC(CCN(C)C)CC3)oc(=O)c12 [Compound 248]
61 | > 7.82 | CCc1cc(OC)cc2nc(-c3cccnc3N3CCN(c4nccs4)CC3)oc(=O)c12 [Compound 250]
62 | > 7.82 | CCc1cc(OC)cc2nc(-c3cccnc3N3CCC(N4CCOCC4)CC3)oc(=O)c12 [Compound 251]
63 | > 7.82 | CCc1cc(OC)cc2nc(-c3cccnc3N3CCN(c4ccncc4)CC3)oc(=O)c12 [Compound 252]
64 | > 7.82 | CCc1cc(OC)cc2nc(-c3cccnc3N3CCN(c4ccccn4)CC3)oc(=O)c12 [Compound 253]
65 | 7.22 to 7.80 | CCc1cc(OC)cc2nc(-c3cccnc3N3CC4CC3CN4CC)oc(=O)c12 (stereo not drawn) [Compound 254]
66 | > 7.82 | CCc1cc(OC)cc2nc(-c3cccnc3N3CC4(C)CN(C)CC(C)(C3)C4O)oc(=O)c12 (stereo not drawn) [Compound 255]
67 | > 7.82 | CCc1cc(OC)cc2nc(-c3cccnc3N3CCC(CCN4CCCC4)CC3)oc(=O)c12 [Compound 257]
68 | 7.22 to 7.80 | CCc1cc(OC)cc2nc(-c3cccnc3N3C[C@H](CNC4CC4)[C@H](F)C3)oc(=O)c12 [Compound 258]
69 | 7.22 to 7.80 | CCc1cc(OC)cc2nc(-c3cccnc3N3C[C@@H](CNC4CC4)[C@H](C)C3)oc(=O)c12 [Compound 259]
70 | 7.22 to 7.80 | CCc1cc(OC)cc2nc(-c3cccnc3N3C[C@H](CNC4CC4)[C@@H](C)C3)oc(=O)c12 [Compound 260]
71 | > 7.82 | CCc1cc(OC)cc2nc(-c3cccnc3N3CC[C@H](N4CCNC(=O)C4)C3)oc(=O)c12 [Compound 261]
72 | > 7.82 | CCc1cc(OC)cc2nc(-c3cccnc3N3CC[C@H](N4CCOCC4)C3)oc(=O)c12 [Compound 262]
